Source: ChEMBL document CHEMBL2401713, “Discovery of bufadienolides as a novel class of ClC-3 chloride channel activators with antitumor activities” (J Med Chem, 2013)
pIC50: −log10 of the molar value. Active and inactive are the calls of the source. No cut-off for these calls is given here.

How the values were obtained:
[1] = system: H22; assay: Cytotoxicity against mouse H22 cells expressing mutated alpha-1 Na+/K+-ATPase assessed as growth inhibition after 48 hrs by MTT assay; assay type: functional, cell-based; details: H22, 48 h
[2] = system: CCRF S-180; assay: Cytotoxicity against mouse S180 cells expressing mutated alpha-1 Na+/K+-ATPase assessed as growth inhibition after 48 hrs by MTT assay; assay type: functional, cell-based; details: CCRF S-180, 48 h
[3] = target: T1, H(+)/Cl(-) exchange transporter 3 (Homo sapiens) (UniProt P51790); assay: Activation of ClC-3 in human CNE2Z cells assessed as increase in chloride current density at +80mV holding potential at 1 uM by whole-cell patch clamp method relative to vehicle-treated control; assay type: cell-based
T1 sequence (whole entry): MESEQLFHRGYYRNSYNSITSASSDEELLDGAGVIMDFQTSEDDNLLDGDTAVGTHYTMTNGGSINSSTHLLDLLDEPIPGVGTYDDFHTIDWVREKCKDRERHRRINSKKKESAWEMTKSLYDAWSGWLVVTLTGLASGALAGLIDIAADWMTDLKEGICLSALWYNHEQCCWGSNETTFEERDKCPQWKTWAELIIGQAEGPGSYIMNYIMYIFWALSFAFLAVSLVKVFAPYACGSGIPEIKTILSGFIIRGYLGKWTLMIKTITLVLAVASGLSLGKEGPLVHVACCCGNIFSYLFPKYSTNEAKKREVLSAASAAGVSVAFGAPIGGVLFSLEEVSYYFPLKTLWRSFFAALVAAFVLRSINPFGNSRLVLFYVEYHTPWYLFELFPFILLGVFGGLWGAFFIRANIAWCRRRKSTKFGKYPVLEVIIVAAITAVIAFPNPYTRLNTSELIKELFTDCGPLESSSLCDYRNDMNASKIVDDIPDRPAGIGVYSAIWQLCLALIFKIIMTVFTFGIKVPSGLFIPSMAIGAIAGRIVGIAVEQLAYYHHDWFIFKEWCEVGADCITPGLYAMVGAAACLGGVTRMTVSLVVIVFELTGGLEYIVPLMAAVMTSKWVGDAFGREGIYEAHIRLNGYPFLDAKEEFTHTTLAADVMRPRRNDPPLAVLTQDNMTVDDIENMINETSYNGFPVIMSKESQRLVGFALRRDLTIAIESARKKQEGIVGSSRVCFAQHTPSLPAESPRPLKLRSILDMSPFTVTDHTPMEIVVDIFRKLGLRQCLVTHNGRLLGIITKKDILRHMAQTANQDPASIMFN

[4] = system: HepG2; assay: Cytotoxicity against adriamycin-resistant human HepG2 cells assessed as growth inhibition after 48 hrs by MTT assay; assay type: functional, cell-based; details: HepG2, 48 h
[5] = Cytotoxicity against human CNE2Z cells assessed as growth inhibition after 48 hrs by MTT assay; assay type: functional, cell-based
[6] = system: HepG2; assay: Cytotoxicity against human HepG2 cells assessed as growth inhibition after 48 hrs by MTT assay; assay type: functional, cell-based; details: HepG2, 48 h
[7] = Cytotoxicity against human CNE1 cells assessed as growth inhibition after 48 hrs by MTT assay; assay type: functional, cell-based; details: CNE
[8] = system: CNE2Z; assay: Induction of apoptosis in human CNE2Z cells assessed as expression of caspase-3 at 1 uM after 24 hrs by annexin V-FITC/propidium iodide staining-based flow cytometric analysis in presence of tamoxifen, NPPB, ClC-3 siRNA; assay type: functional, cell-based
[9] = system: CNE2Z; assay: Induction of apoptosis in human CNE2Z cells assessed as induction of PARP cleavage at 1 uM after 24 hrs by annexin V-FITC/propidium iodide staining-based flow cytometric analysis in presence of tamoxifen, NPPB, ClC-3 siRNA; assay type: functional, cell-based
[10] = system: CNE2Z; assay: Induction of apoptosis in human CNE2Z cells assessed as increase in apoptotic cell level at 1 to 10 uM after 24 hrs by annexin V-FITC/propidium iodide staining-based flow cytometric analysis in presence of tamoxifen, NPPB, ClC-3 siRNA; assay type: functional
[11] = system: CNE2Z; assay: Induction of apoptosis in human CNE2Z cells assessed as activation of caspase-3 at 1 uM after 24 hrs by annexin V-FITC/propidium iodide staining-based flow cytometric analysis; assay type: functional, cell-based
[12] = system: CNE2Z; assay: Induction of apoptosis in human CNE2Z cells assessed as induction of PARP cleavage at 1 uM after 24 hrs by annexin V-FITC/propidium iodide staining-based flow cytometric analysis; assay type: functional, cell-based
[13] = system: CNE2Z; assay: Induction of apoptosis in human CNE2Z cells assessed as increase in apoptotic cell level at 1 to 10 uM after 24 hrs by annexin V-FITC/propidium iodide staining-based flow cytometric analysis; assay type: functional
[14] = Cell cycle arrest in human CNE2Z cells assessed as accumulation at sub-G1 phase at 10 uM after 24 hrs by propidium iodide staining-based flow cytometric analysis in presence of ClC-3 siRNA (reference value: 1.3%); assay type: functional
[15] = Cell cycle arrest in human CNE2Z cells assessed as accumulation at sub-G1 phase at 5 uM after 24 hrs by propidium iodide staining-based flow cytometric analysis in presence of ClC-3 siRNA (reference value: 1.3%); assay type: functional
[16] = Cell cycle arrest in human CNE2Z cells assessed as accumulation at sub-G1 phase at 1 uM after 24 hrs by propidium iodide staining-based flow cytometric analysis in presence of ClC-3 siRNA (reference value: 1.3%); assay type: functional
[17] = Cell cycle arrest in human CNE2Z cells assessed as accumulation at sub-G1 phase at 10 uM after 24 hrs by propidium iodide staining-based flow cytometric analysis in presence of NPPB (reference value: 2%); assay type: functional
[18] = Cell cycle arrest in human CNE2Z cells assessed as accumulation at sub-G1 phase at 5 uM after 24 hrs by propidium iodide staining-based flow cytometric analysis in presence of NPPB (reference value: 2%); assay type: functional
[19] = Cell cycle arrest in human CNE2Z cells assessed as accumulation at sub-G1 phase at 1 uM after 24 hrs by propidium iodide staining-based flow cytometric analysis in presence of NPPB (reference value: 2%); assay type: functional
[20] = Cell cycle arrest in human CNE2Z cells assessed as accumulation at sub-G1 phase at 10 uM after 24 hrs by propidium iodide staining-based flow cytometric analysis in presence of tamoxifen (reference value: 1.5%); assay type: functional
[21] = Cell cycle arrest in human CNE2Z cells assessed as accumulation at sub-G1 phase at 5 uM after 24 hrs by propidium iodide staining-based flow cytometric analysis in presence of tamoxifen (reference value: 1.5%); assay type: functional
[22] = Cell cycle arrest in human CNE2Z cells assessed as accumulation at sub-G1 phase at 1 uM after 24 hrs by propidium iodide staining-based flow cytometric analysis in presence of tamoxifen (reference value: 1.5%); assay type: functional
[23] = Cell cycle arrest in human CNE2Z cells assessed as accumulation at sub-G1 phase at 10 uM after 24 hrs by propidium iodide staining-based flow cytometric analysis (reference value: 1.1%); assay type: functional
[24] = Cell cycle arrest in human CNE2Z cells assessed as accumulation at sub-G1 phase at 5 uM after 24 hrs by propidium iodide staining-based flow cytometric analysis (reference value: 1.1%); assay type: functional
[25] = Upregulation of ClC-3 protein expression in human CNE2Z cells after 24 hrs by Western blot analysis; assay type: functional, cell-based
[26] = Cytotoxicity against SV40-transformed human NP69 cells assessed as cell viability after 48 hrs by MTT assay; assay type: cell-based; details: NP69, 48 h
[27] = Cell cycle arrest in human CNE2Z cells assessed as accumulation at sub-G1 phase at 1 uM after 24 hrs by propidium iodide staining-based flow cytometric analysis (reference value: 1.1%); assay type: functional
[28] = target: T1, H(+)/Cl(-) exchange transporter 3 (Homo sapiens); assay: Activation of ClC-3 in human CNE2Z cells assessed as increase in chloride current in outward and inward direction at +80mV holding potential at 1 uM by whole-cell patch clamp method; assay type: cell-based
[29] = Cell cycle arrest in human CNE2Z cells assessed as accumulation at sub-G1 phase at 50 uM after 24 hrs by propidium iodide staining-based flow cytometric analysis in presence of ClC-3 siRNA (reference value: 1.3%); assay type: functional
[30] = Cell cycle arrest in human CNE2Z cells assessed as accumulation at sub-G1 phase at 50 uM after 24 hrs by propidium iodide staining-based flow cytometric analysis in presence of NPPB (reference value: 2%); assay type: functional
[31] = Cell cycle arrest in human CNE2Z cells assessed as accumulation at sub-G1 phase at 50 uM after 24 hrs by propidium iodide staining-based flow cytometric analysis in presence of tamoxifen (reference value: 1.5%); assay type: functional
[32] = Cell cycle arrest in human CNE2Z cells assessed as accumulation at sub-G1 phase at 50 uM after 24 hrs by propidium iodide staining-based flow cytometric analysis (reference value: 1.1%); assay type: functional
[33] = system: CNE2Z; assay: Induction of apoptosis in human CNE2Z cells assessed as activation of caspase-8 at 1 to 50 uM after 24 hrs by luminometric analysis; assay type: functional, cell-based
[34] = system: CNE2Z; assay: Induction of apoptosis in human CNE2Z cells assessed as activation of caspase-3/7 at 1 to 50 uM after 24 hrs by luminometric analysis; assay type: functional, cell-based

Compound | pIC50 [1] | pIC50 [2] | Activity [3] | pIC50 [4] | pIC50 [5] | pIC50 [6] | pIC50 [7] | further results
COC(=O)CCCCCCC(=O)O[C@H]1CC[C@@]2(C)[C@H](CC[C@@H]3[C@@H]2CC[C@]2(C)[C@@H](c4ccc(=O)oc4)CC[C@]32O)C1 | < 4.30 | < 4.30 | Active | 5.62 | 5.54 | 5.50 | 5.76 | –
CC(=O)O[C@H]1[C@H]2O[C@]23[C@@H]2CC[C@@H]4C[C@@H](O)CC[C@]4(C)[C@H]2CC[C@]3(C)[C@H]1c1ccc(=O)oc1 [CINOBUFAGIN] | < 4.30 | < 4.30 | – | 5.77 | 6.41 | 5.63 | 6.51 | –
C[C@]12CC[C@H]3[C@@H](CC[C@@H]4C[C@@H](O)CC[C@@]43C=O)[C@]13O[C@@H]3C[C@@H]2c1ccc(=O)oc1 | < 4.30 | < 4.30 | – | < 4.00 | 4.58 | < 4.00 | 4.82 | –
C[C@]12CC[C@H](O)C[C@H]1CC[C@@H]1[C@@H]2CC[C@]2(C)[C@@H](c3ccc(=O)oc3)CC[C@]12O [BUFALIN] | < 4.30 | < 4.30 | – | 6.46 | 6.34 | 6.23 | 6.55 | Activity [8]: inactive; Activity [9]: inactive; Activity [10]: inactive; Activity [11]: Active; Activity [12]: Active; Activity [13]: 35.2%; Activity [14]: 40.9%; Activity [15]: 31.7%; Activity [16]: 21.5%; Activity [17]: 42.7%; Activity [18]: 33.9%; Activity [19]: 23.1%; Activity [20]: 43.9%; Activity [21]: 36.9%; Activity [22]: 26.5%; Activity [23]: 59.1%; Activity [24]: 50.5%; Activity [25]: Dose-dependent effect; pIC50 [26]: < 4.60; Activity [27]: 39.1%
C[C@]12CC[C@H](OC(=O)CCCCCCC(=O)O)C[C@H]1CC[C@@H]1[C@@H]2CC[C@]2(C)[C@@H](c3ccc(=O)oc3)CC[C@]12O | < 4.30 | < 4.30 | – | < 4.00 | 5.13 | < 4.00 | 5.30 | –
C[C@]12CC[C@H](O)C[C@H]1CC[C@@H]1[C@@H]2CC[C@]2(C)[C@@H](c3ccc(=O)oc3)[C@@H](O)C[C@]12O [DESACETYLBUFOTALIN] | < 4.30 | < 4.30 | Active | 5.59 | 5.75 | 5.45 | 5.31 | –
CC(=O)O[C@@H]1C[C@H](c2ccc(=O)oc2)[C@@]2(C)CC[C@H]3[C@@H](CC[C@@H]4C[C@@H](O)CC[C@@]43C)[C@@]12O | < 4.30 | < 4.30 | inactive | < 4.00 | < 4.00 | < 4.00 | < 4.00 | Activity [28]: inactive; Activity [29]: 3.4%; Activity [30]: 3.8%; Activity [31]: 3.9%; Activity [32]: 4%; Activity [33]: inactive; Activity [34]: inactive; Activity [13]: inactive; Activity [15]: 3.3%; Activity [16]: 3%; Activity [18]: 3.5%; Activity [19]: 2.8%; Activity [21]: 3.5%; Activity [22]: 2.2%; Activity [24]: 3.1%; Activity [25]: inactive; Activity [27]: 1.3%
